In US9499502B2, “5-substituted iminothiazines and their mono- and dioxides as BACE inhibitors, compositions, and their use” (Merck Sharp & Dohme Corp., priority 2011, dated 2016):
pKi: −log10 of the molar value.

target: soluble human BACE1 catalytic domain (Homo sapiens (Human), UniProt P56817); assay: BACE1 HTRF FRET Assay; conditions: read-out: BACE1 % Inh. at 10 μM, at 10 μM
Sequence (P56817 75-416): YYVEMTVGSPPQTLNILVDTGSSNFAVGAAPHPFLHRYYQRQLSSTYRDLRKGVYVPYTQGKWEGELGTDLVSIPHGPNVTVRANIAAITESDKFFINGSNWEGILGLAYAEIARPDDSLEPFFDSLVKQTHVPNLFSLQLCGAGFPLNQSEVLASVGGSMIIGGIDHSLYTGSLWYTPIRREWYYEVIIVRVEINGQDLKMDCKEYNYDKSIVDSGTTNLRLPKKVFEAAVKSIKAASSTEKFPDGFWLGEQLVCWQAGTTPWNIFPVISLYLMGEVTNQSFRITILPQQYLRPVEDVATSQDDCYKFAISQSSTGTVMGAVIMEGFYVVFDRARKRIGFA

inhibition at 10 µM [%]	Structure (SMILES)
29	CC1(C)C(=N)N[C@](C)(c2nc(-c3cncc(C#N)c3)ccc2F)CS1(=O)=O [Example 16d]
31	COc1cccc2cc(-c3ccc(F)c([C@]4(C)CS(=O)(=O)C(C)(C)C(=N)N4)n3)[nH]c12 [Example 16e]

same assay, conditions: read-out: BACE1 Ki

Structure (SMILES)	pKi
C[C@@]1(c2sc(-c3cccc(C#N)c3)cc2F)CS(=O)(=O)[C@](C)(CC(F)(F)F)C(=N)N1 [Example 27bj-b]	6.08
C[C@@]1(c2sc(-c3cccc(-c4nnco4)c3)cc2F)CS(=O)(=O)[C@](C)(CC(F)(F)F)C(=N)N1 [Example 27bk-b]	6.98
COc1cccc(-c2cc(F)c([C@]3(C)CS(=O)(=O)[C@](C)(CC(F)(F)F)C(=N)N3)s2)c1 [Example 27bl-b]	5.14
COc1cncc(-c2cc(F)c([C@]3(C)CS(=O)(=O)C(C)(CC(F)(F)F)C(=N)N3)s2)c1 (stereo partly drawn) [Example 27bn-a]	5.10
C[C@@]1(c2sc(-c3cccc(C#N)c3)cc2F)CS(=O)(=O)[C@@](C)(c2ccccn2)C(=N)N1 [Example 27bo-a]	6.88
C[C@@]1(c2ccccn2)C(=N)N[C@](C)(c2sc(-c3cccc(C#N)c3)cc2F)CS1(=O)=O [Example 27bo-b]	5.57
C[C@@]1(c2sc(-c3cccc(-c4nnco4)c3)cc2F)CS(=O)(=O)[C@@](C)(c2ccccn2)C(=N)N1 [Example 27bp-a]	7.75
C[C@@]1(c2ccccn2)C(=N)N[C@](C)(c2sc(-c3cccc(-c4nnco4)c3)cc2F)CS1(=O)=O [Example 27bp-b]	6.40
C[C@@]1(c2sc(-c3cncc(C#N)c3)cc2F)CS(=O)(=O)[C@@](C)(c2ccccn2)C(=N)N1 [Example 27bq-a]	6.57
C[C@@]1(c2ccccn2)C(=N)N[C@](C)(c2sc(-c3cncc(C#N)c3)cc2F)CS1(=O)=O [Example 27bq-b]	5.60
C[C@@]1(c2cccc(F)c2)C(=N)N[C@](C)(c2sc(-c3cccc(C#N)c3)cc2F)CS1(=O)=O [Example 27br-b]	5.31
C[C@@]1(c2ccccc2F)C(=N)N[C@](C)(c2sc(-c3cccc(C#N)c3)cc2F)CS1(=O)=O [Example 27bs-b]	5.50

The remaining lines, values ahead:

pKi	Structure (SMILES)
7.38	CC1(C)C(=N)N[C@](C)(c2cc(-c3cccc(-c4nnco4)c3)cs2)CS1(=O)=O [Example 27ah]
7.13	CC1(C)C(=N)N[C@](C)(c2cc(-c3cccc(-c4cnco4)c3)cs2)CS1(=O)=O [Example 27ai]
6.95	CC1(C)C(=N)N[C@](C)(c2cc(-c3cccc(-c4ccno4)c3)cs2)CS1(=O)=O [Example 27aj]
6.89	CC1(C)C(=N)N[C@](C)(c2cc(-c3cncc(-c4ncco4)c3)cs2)CS1(=O)=O [Example 27ak]
7.03	CC1(C)C(=N)N[C@](C)(c2cc(-c3cncc(-c4cnco4)c3)cs2)CS1(=O)=O [Example 27al]
7.09	CC1(C)C(=N)N[C@](C)(c2cc(-c3cc(F)cc(-c4cnco4)c3)cs2)CS1(=O)=O [Example 27am]
6.99	CC1(C)C(=N)N[C@](C)(c2sc(-c3cncc(C#N)c3)cc2F)CS1(=O)=O [Example 27ap]
7.96	CC1(C)C(=N)N[C@](C)(c2sc(-c3cccc(-c4nnco4)c3)cc2F)CS1(=O)=O [Example 27ar]
6.03	COc1cncc(-c2cc(F)c([C@]3(C)CS(=O)(=O)C(C)(C)C(=N)N3)s2)n1 [Example 27au]
6.18	CC1(C)C(=N)N[C@](C)(c2sc(-c3ccnc(C4CC4)c3)cc2F)CS1(=O)=O [Example 27av]
6.90	Cc1noc(-c2cccc(-c3cc(F)c([C@]4(C)CS(=O)(=O)C(C)(C)C(=N)N4)s3)c2)n1 [Example 27aw]
6.07	Cc1nnc(-c2ccc(F)c(-c3cc(F)c([C@]4(C)CS(=O)(=O)C(C)(C)C(=N)N4)s3)c2)o1 [Example 27ax]
6.32	Cc1nnc(-c2cccc(-c3cc(F)c([C@]4(C)CS(=O)(=O)C(C)(C)C(=N)N4)s3)c2)o1 [Example 27ay]
7.85	CC1(C)C(=N)N[C@](C)(c2sc(-c3cncc(-c4nnco4)c3)cc2F)CS1(=O)=O [Example 27az]
7.31	CC1(C)C(=N)N[C@](C)(c2sc(-c3nnc(-c4ccc(C#N)cc4)o3)cc2F)CS1(=O)=O [Example 27bi]
6.87	COCC1(COC)C(=N)N[C@](C)(c2sc(-c3cccc(C#N)c3)cc2Cl)CS1(=O)=O [Example 27bt]
5.93	COCC1(COC)C(=N)N[C@](C)(c2sc(-c3cccc(-c4nnco4)c3)cc2Cl)CS1(=O)=O [Example 27bu]
7.10	COCC1(COC)C(=N)N[C@](C)(c2sc(-c3cc4cccc(OC)c4[nH]3)cc2Cl)CS1(=O)=O [Example 27bv]

same assay, conditions: read-out: BACE1 Ki; Ki calculated from IC50 using the Cheng-Prusoff equation

Structure (SMILES)	pKi
COc1ccc(C(=O)Nc2cc(F)c(F)c([C@]3(C)CS(=O)(=O)C(C)(C)C(=N)N3)c2)nc1 [Example 9m]	8.12
COc1cnc(C(=O)Nc2cc(F)c(F)c([C@]3(C)CS(=O)(=O)C(C)(C)C(=N)N3)c2)c(F)c1 [Example 9o]	8.52
CC1(C)C(=N)N[C@](C)(c2cc(NC(=O)c3cnc(C(F)F)cn3)ccc2F)CS1(=O)=O [Example 9q]	8.44
CC1(C)C(=N)N[C@](C)(c2cc(NC(=O)c3cnc(C(F)F)cn3)cc(F)c2F)CS1(=O)=O [Example 9r]	8.28
CC1(C)C(=N)N[C@](C)(c2cc(NC(=O)c3ccc(F)cn3)cc(Cl)c2F)CS1(=O)=O [Example 9s]	8.20
CC1(C)C(=N)N[C@](C)(c2cc(NC(=O)c3ccc(Cl)cn3)cc(Cl)c2F)CS1(=O)=O [Example 9t]	8.48
COc1ccc(C(=O)Nc2cc(Cl)c(F)c([C@]3(C)CS(=O)(=O)C(C)(C)C(=N)N3)c2)nc1 [Example 9u]	8.24
COc1cnc(C(=O)Nc2cc(Cl)c(F)c([C@]3(C)CS(=O)(=O)C(C)(C)C(=N)N3)c2)cn1 [Example 9w]	8.36
CC1(C)C(=N)N[C@](C)(c2nc(-c3cccc(C#N)c3)ccc2F)CS1(=O)=O [Example 16b]	5.30
CC1(C)C(=N)N[C@](C)(c2nc(-c3ccc(C#N)s3)ccc2F)CS1(=O)=O [Example 16c]	5.45
CCc1cccc(NC(=O)c2cc(Cl)c([C@]3(C)CS(=O)(=O)C(C)(C)C(=N)N3)s2)n1 [Example 19]	6.87
CC1(C)C(=N)N[C@](C)(c2sc(C(=O)Nc3cccc(F)n3)cc2Cl)CS1(=O)=O [Example 21]	6.58
CC1(C)C(=N)N[C@](C)(c2sc(C(=O)Nc3cccc(C(F)(F)F)n3)cc2Cl)CS1(=O)=O [Example 22]	6.76

Continued, values first:

pKi	Structure (SMILES)
5.85	CC1(C)C(=N)N[C@](C)(c2sc(C(=O)NCc3ncccc3Cl)cc2Cl)CS1(=O)=O [Example 22a]
5.45	CC1(C)C(=N)N[C@](C)(c2sc(C(=O)NCc3ncccn3)cc2Cl)CS1(=O)=O [Example 22b]
5.10	Cc1cccc(CNC(=O)c2cc(Cl)c([C@]3(C)CS(=O)(=O)C(C)(C)C(=N)N3)s2)n1 [Example 22c]
5.33	CC1(C)C(=N)N[C@](C)(c2sc(C(=O)NCc3ccc4cnccc4c3)cc2Cl)CS1(=O)=O [Example 22d]
6.12	Cc1ccc(CNC(=O)c2cc(Cl)c([C@]3(C)CS(=O)(=O)C(C)(C)C(=N)N3)s2)nn1 [Example 22e]
5.79	CC1(C)C(=N)N[C@](C)(c2sc(C(=O)NCc3ccccc3Cl)cc2Cl)CS1(=O)=O [Example 22h]
5.94	CC1(C)C(=N)N[C@](C)(c2sc(C(=O)NCc3cccc(F)c3)cc2Cl)CS1(=O)=O [Example 22i]
6.12	CC1(C)C(=N)N[C@](C)(c2sc(C(=O)NCc3ccc(F)cc3)cc2Cl)CS1(=O)=O [Example 22j]
6.06	CC1(C)C(=N)N[C@](C)(c2sc(C(=O)NCc3ccc(Cl)cc3)cc2Cl)CS1(=O)=O [Example 22k]
5.90	CC1(C)C(=N)N[C@](C)(c2sc(C(=O)NCc3cccc(Cl)c3)cc2Cl)CS1(=O)=O [Example 22l]
5.99	CC1(C)C(=N)N[C@](C)(c2sc(C(=O)NCc3ccc(C#N)cc3)cc2Cl)CS1(=O)=O [Example 22m]
6.04	CC1(C)C(=N)N[C@](C)(c2sc(C(=O)NCC3CCC3)cc2Cl)CS1(=O)=O [Example 22n]
5.93	CC1(C)C(=N)N[C@](C)(c2sc(C(=O)NCc3ncc(F)cc3Cl)cc2Cl)CS1(=O)=O [Example 22o]
5.74	CC1(C)C(=N)N[C@](C)(c2sc(C(=O)NCc3ccc(C(F)(F)F)cn3)cc2Cl)CS1(=O)=O [Example 22p]
6.45	CC1(C)C(=N)N[C@](C)(c2sc(C(=O)NCc3cnoc3)cc2Cl)CS1(=O)=O [Example 22q]
6.73	CC1(C)C(=N)N[C@](C)(c2sc(C(=O)NCc3cnsn3)cc2Cl)CS1(=O)=O [Example 22r]
6.89	CC1(C)C(=N)N[C@](C)(c2sc(C(=O)NCc3cnn4ccccc34)cc2Cl)CS1(=O)=O [Example 22s]
5.50	CC1(C)C(=N)N[C@](C)(c2sc(C(=O)NCc3ccncn3)cc2Cl)CS1(=O)=O [Example 22t]
6.53	CC1(C)C(=N)N[C@](C)(c2sc(C(=O)NCc3ccsn3)cc2Cl)CS1(=O)=O [Example 22v]
7.58	CC1(C)C(=N)N[C@](C)(c2sc(-c3cc(F)cc(-c4cnco4)c3)cc2Cl)CS1(=O)=O [Example 27aa]
7.81	CC1(C)C(=N)N[C@](C)(c2sc(-c3cc(F)cc(-c4nnco4)c3)cc2Cl)CS1(=O)=O [Example 27ab]
7.65	CC1(C)C(=N)N[C@](C)(c2sc(-c3cncc(-c4cnco4)c3)cc2Cl)CS1(=O)=O [Example 27ac]
7.35	CC1(C)C(=N)N[C@](C)(c2sc(-c3cncc(-c4ncco4)c3)cc2Cl)CS1(=O)=O [Example 27ad]
8.09	CC1(C)C(=N)N[C@](C)(c2sc(-c3cccc(-c4nnco4)c3)cc2Cl)CS1(=O)=O [Example 27b]
6.59	CC1(C)C(=N)N[C@](C)(c2sc(-c3nnc(-c4ccccc4)o3)cc2Cl)CS1(=O)=O [Example 27ba]
7.12	COc1ccc(-c2nnc(-c3cc(Cl)c([C@]4(C)CS(=O)(=O)C(C)(C)C(=N)N4)s3)o2)cc1 [Example 27bd]
7.31	CC1(C)C(=N)N[C@](C)(c2sc(-c3nnc(-c4ccc(C#N)cc4)o3)cc2Cl)CS1(=O)=O [Example 27be]
